Measured values taken from patent US12146004B2, “Polymyxin compounds and uses thereof” (priority 2014, dated 2024).
Values after ≈ are worked out from the molar mass of the structure shown. Blank lines part the entries; values can stand above or below the molecule they belong to. Numbered stars: 1 amine (or outer) side, 2 acyl side, 3 side chain; on linkers, the order of the positions; unused ones are H or OH. Bridge positions count the residues as written; N and C are the ends. Square brackets hold non-standard residues; d marks the D form. Peptide text beside a SMILES is read from it. * marks the point of attachment. ξ: configuration not given here. X5 = CCCCCCCCc1ccc(C[C@@H](N[*:1])C(=O)[*:2])cc1; X29 = Cc1ccc(CO[C@@H](CN)C(=O)*)cc1; dCha = N[C@H](CC1CCCCC1)C(=O)O; Thr(3ξ) = CC(O)[C@H](N)C(=O)O; X24 = NCCC(Cc1ccsc1)C(=O)*; Dab = NCC[C@H](N)C(=O)O; Dap = NC[C@H](N)C(=O)O

Assays:
Assay type in all cases: cell-based
Acinetobacter baumannii = tested on: Acinetobacter baumannii
How it was run: (§1)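 Each compound was tested against a panel of up to nine strains per Gram-negative species. The panel included strains that show elevated MICs to Polymyxin. Activity was recorded as MIC in μg/mL.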

Escherichia coli = tested on: Escherichia coli
How it was run: as §1

Klebsiella pneumoniae = tested on: Klebsiella pneumoniae
How it was run: as §1

Pseudomonas aeruginosa = tested on: Pseudomonas aeruginosa
How it was run: as §1

SMILES: CC(C)CC(CN)C(=O)N[C@H](C(=O)N[C@@H](CN)C(=O)N[C@H]1CCNC(=O)[C@H]([C@@H](C)O)NC(=O)[C@H](CCN)NC(=O)[C@H](CCN)NC(=O)[C@H](CC(C)C)NC(=O)[C@@H](Cc2ccc(-c3ccccc3)cc2)NC(=O)[C@H](CCN)NC1=O)C(C)O (single isomer, unassigned; isomer 1) [Example 15, 2-aminomethyl-4-mehtly pentanoyl polymyxin L-Thr-L-Dap-polymyxin [D-(4-phenyl Phe)]-6]heptapeptide. Isomer 1]
MIC A. baumanii 053 (Acinetobacter baumannii): >64 µg/mL
MIC A. baumanii 056 (Acinetobacter baumannii): >64 µg/mL
MIC A. baumanii ATCC BAA-747 (Acinetobacter baumannii): 8 µg/mL (≈ 6.94 µM)
MIC E. coli 058 (Escherichia coli): 32 µg/mL (≈ 27.8 µM)
MIC E. coli 059 (Escherichia coli): 16 µg/mL (≈ 13.9 µM)
MIC E. coli 060 (Escherichia coli): 32 µg/mL (≈ 27.8 µM)
MIC E. coli 061 (Escherichia coli): 64 µg/mL (≈ 55.5 µM)
MIC E. coli ATCC 25922 (Escherichia coli): 1 µg/mL (≈ 0.868 µM)
MIC K. pneumoniae 062 (Klebsiella pneumoniae): >64 µg/mL
MIC K. pneumoniae 063 (Klebsiella pneumoniae): >64 µg/mL
MIC K. pneumoniae 064 (Klebsiella pneumoniae): >64 µg/mL
MIC K. pneumoniae 065 (Klebsiella pneumoniae): 64 µg/mL (≈ 55.5 µM)
MIC K. pneumoniae 066 (Klebsiella pneumoniae): 64 µg/mL (≈ 55.5 µM)
MIC K. pneumoniae 067 (Klebsiella pneumoniae): >64 µg/mL
MIC K. pneumoniae ATCC 4352 (Klebsiella pneumoniae): 0.5 µg/mL (≈ 0.434 µM)
MIC P. aeruginosa 068 (Pseudomonas aeruginosa): 16 µg/mL (≈ 13.9 µM)
MIC P. aeruginosa 070 (Pseudomonas aeruginosa): 32 µg/mL (≈ 27.8 µM)
MIC P. aeruginosa ATCC 27853 (Pseudomonas aeruginosa): 1 µg/mL (≈ 0.868 µM)

SMILES: CCCCCCCCc1ccc(C[C@H]2NC(=O)[C@H](CCN)NC(=O)[C@@H](NC(=O)[C@H](CN)NC(=O)[C@@H](NC(=O)[C@@H](N)CCN)C(C)O)CCNC(=O)[C@H]([C@@H](C)O)NC(=O)[C@H](CCN)NC(=O)[C@H](CCN)NC(=O)[C@H](CC(C)C)NC2=O)cc1 (stereo partly drawn) [Example 29, L-Dab-L-Thr-L-Dap-polymyxin [D-(4-octyl Phe)]-6 heptapeptide] (H-[Dab][Thr(3ξ)][Dap][Dab][Dab][X5]L[Dab][Dab]T; lactam 4-C)
MIC A. baumanii ATCC BAA-747 (Acinetobacter baumannii): 4 µg/mL (≈ 3.44 µM)
MIC A. baumanii NCTC 13424 (Acinetobacter baumannii): 4 µg/mL (≈ 3.44 µM)
MIC E. coli 058 (Escherichia coli): 32 µg/mL (≈ 27.6 µM)
MIC E. coli ATCC 25922 (Escherichia coli): 2 µg/mL (≈ 1.72 µM)
MIC K. pneumoniae 065 (Klebsiella pneumoniae): >64 µg/mL
MIC P. aeruginosa ATCC 27853 (Pseudomonas aeruginosa): 4 µg/mL (≈ 3.44 µM)
MIC P. aeruginosa CCUG 59347 (Pseudomonas aeruginosa): 8 µg/mL (≈ 6.89 µM)

Now from value to molecule:

MIC A. baumanii ATCC BAA-747 (Acinetobacter baumannii): 0.5 µg/mL (≈ 0.434 µM)
MIC A. baumanii NCTC 13424 (Acinetobacter baumannii): 0.25 µg/mL (≈ 0.217 µM)
MIC E. coli 058 (Escherichia coli): 2 µg/mL (≈ 1.74 µM)
MIC E. coli ATCC 25922 (Escherichia coli): 0.5 µg/mL (≈ 0.434 µM)
MIC K. pneumoniae 065 (Klebsiella pneumoniae): 0.25 µg/mL (≈ 0.217 µM)
MIC K. pneumoniae ATCC 13882 (Klebsiella pneumoniae): 0.5 µg/mL (≈ 0.434 µM)
MIC P. aeruginosa ATCC 27853 (Pseudomonas aeruginosa): 0.5 µg/mL (≈ 0.434 µM)
MIC P. aeruginosa CCUG 59347 (Pseudomonas aeruginosa): 0.5 µg/mL (≈ 0.434 µM)
SMILES: CC(C)C[C@@H]1NC(=O)[C@@H](CC2CCCCC2)NC(=O)[C@H](CCN)NC(=O)[C@@H](NC(=O)[C@H](CN)NC(=O)[C@@H](NC(=O)CC(CN)c2ccc(Cl)cc2)C(C)O)CCNC(=O)[C@H]([C@@H](C)O)NC(=O)[C@H](CCN)NC(=O)[C@H](CCN)NC1=O (single isomer, unassigned; isomer 2) [Example 51, 4-amino-3-(4-chlorophenyl) butanoyl L-Thr-L-Dap-polymyxin [D-cyclohexylalanine]-6 heptapeptide. Isomer 2]

MIC A. baumanii 053 (Acinetobacter baumannii): >64 µg/mL
MIC A. baumanii 056 (Acinetobacter baumannii): 64 µg/mL (≈ 56.3 µM)
MIC A. baumanii ATCC BAA-747 (Acinetobacter baumannii): 0.25 µg/mL (≈ 0.22 µM)
MIC A. baumanii NCTC 13424 (Acinetobacter baumannii): 0.25 µg/mL (≈ 0.22 µM)
MIC E. coli 058 (Escherichia coli): 2 µg/mL (≈ 1.76 µM)
MIC E. coli 061 (Escherichia coli): 16 µg/mL (≈ 14.1 µM)
MIC E. coli ATCC 25922 (Escherichia coli): 0.125 µg/mL (≈ 0.11 µM)
MIC K. pneumoniae 063 (Klebsiella pneumoniae): 16 µg/mL (≈ 14.1 µM)
MIC K. pneumoniae 065 (Klebsiella pneumoniae): 1 µg/mL (≈ 0.88 µM)
MIC K. pneumoniae ATCC 13882 (Klebsiella pneumoniae): 0.25 µg/mL (≈ 0.22 µM)
MIC P. aeruginosa 068 (Pseudomonas aeruginosa): 1 µg/mL (≈ 0.88 µM)
MIC P. aeruginosa 070 (Pseudomonas aeruginosa): 1 µg/mL (≈ 0.88 µM)
MIC P. aeruginosa ATCC 27853 (Pseudomonas aeruginosa): 0.25 µg/mL (≈ 0.22 µM)
MIC P. aeruginosa CCUG 59347 (Pseudomonas aeruginosa): 0.5 µg/mL (≈ 0.44 µM)
SMILES: CC(C)C[C@@H]1NC(=O)[C@@H](CC2CCCCC2)NC(=O)[C@H](CCN)NC(=O)[C@@H](NC(=O)[C@H](CN)NC(=O)[C@@H](NC(=O)C(CCN)Cc2ccsc2)[C@@H](C)O)CCNC(=O)[C@H]([C@@H](C)O)NC(=O)[C@H](CCN)NC(=O)[C@H](CCN)NC1=O (stereo partly drawn) [Example 68, 4-amino-2-(thiophen-3-ylmethyl)butanoyl L-Thr-L-Dap-polymyxin [D-cyclohexylalanine]-6 heptapeptide.] (X24-T[Dap][Dab][Dab][dCha]L[Dab][Dab]T; lactam 3-C)

MIC A. baumanii ATCC BAA-747 (Acinetobacter baumannii): 0.25 µg/mL (≈ 0.218 µM)
MIC A. baumanii NCTC 13424 (Acinetobacter baumannii): 0.06 µg/mL (≈ 0.0523 µM)
MIC E. coli 058 (Escherichia coli): 4 µg/mL (≈ 3.49 µM)
MIC E. coli ATCC 25922 (Escherichia coli): 0.25 µg/mL (≈ 0.218 µM)
MIC K. pneumoniae ATCC 13882 (Klebsiella pneumoniae): 0.25 µg/mL (≈ 0.218 µM)
MIC P. aeruginosa ATCC 27853 (Pseudomonas aeruginosa): 0.25 µg/mL (≈ 0.218 µM)
MIC P. aeruginosa CCUG 59347 (Pseudomonas aeruginosa): 0.25 µg/mL (≈ 0.218 µM)
SMILES: Cc1ccc(CO[C@@H](CN)C(=O)N[C@H](C(=O)N[C@@H](CN)C(=O)N[C@H]2CCNC(=O)[C@H]([C@@H](C)O)NC(=O)[C@H](CCN)NC(=O)[C@H](CCN)NC(=O)[C@H](CC(C)C)NC(=O)[C@@H](CC3CCCCC3)NC(=O)[C@H](CCN)NC2=O)[C@@H](C)O)cc1 [Example 78, (S)-3-amino-2-((4-methylbenzyl)oxy) propanoyl L-Thr-L-Dap-polymyxin [D-cyclohexylalanine]-6 heptapeptide] (X29-T[Dap][Dab][Dab][dCha]L[Dab][Dab]T; lactam 3-C)
